The source of these data is patent US8883745B2, “C—glycolipids with enhanced Th-1 profile” (New York University, priority 2006, dated 2014).

The subject of one assay is IL-4. The experiment in a line: In vitro IL-4 ELISPOT assay using PBMCs and immature DCs. It is filed as cell-based, human. As to conditions: 100 ng/ml glycolipid, 22-26 hours co-culture with immature DCs.
Another assay concerns IFN-γ. The experiment in a line: In vitro IFN-γ ELISPOT assay using PBMCs and immature DCs. It is filed as cell-based, human. The note with it: 100 ng/ml glycolipid, 22-26 hours co-culture with immature DCs. Here is the method: CD14+ cells were isolated from leukopaks, using magnetic beads (Miltenyi biotec, Auburn, Calif.) coupled to an anti-CD14 monoclonal antibody. Immature dendritic cells (DCs) were then generated from the CD14+ cells after a three-day incubation in the presence of 300 U/ml GM-CSF (R&D systems, Minneapolis, Minn.) and 100 U/ml IL-4 (R&D systems, Minneapolis, Minn.). CD14-cells were used as Peripheral Blood Mononuclear Cells (PBMCs) for the following experiments.
96 well nitrocellulose plates (Milititer HA, Millipore) were coated with 10 μg/ml of anti-human interferon γ mAb (Mabtech, Ohio), contained in 75 μl of PBS. After overnight incubation at room temperature, the wells were washed repeatedly and blocked with culture medium for 1 hour at 37° C. Following irradiation with 3000 rads, 5×10^4 immature dendritic cells were co-cultured with 5×10^5 of syngeneic CD14− PBMCs in the presence of 100 ng/ml of various glycolipids (i.e., GCK109 [A-1 trans-conformer], GCK151 [A-1 cis-conformer], GCK127 [A-2], GCK152 [A-7], and control compounds CRONY=α-C-GalCer and KRN=α-GalCer) in the ELISPOT plate for 22-26 hours at 37° C. and 5% CO2. […] After 10 to 15 minutes, the number of spots corresponding to IFN-γ secreting cells was determined using a stereomicroscope. […]

In the case of `CCCCCCCCCCCCCC[C@@H](O)[C@@H](O)[C@H](/C=C/[C@H]1OC(CO)[C@H](O)[C@H](O)C1O)NC(=O)CCCCCCCc1ccccc1` (stereo partly shown) [A-7], in the assay on IL-4, the “frequency of PBMCs secreting IL-4 (ELISPOT), compared with KRN” value is “high frequency”. Moreover, in the assay on IFN-γ, the “frequency of PBMCs secreting IFN-γ (ELISPOT), compared with KRN” value is reported as “high frequency”.

As for `CCCCCCCCCCCCCCCCCC/C=C\CCCCCCCCC(=O)N[C@@H](/C=C/[C@H]1OC(CO)[C@H](O)[C@H](O)C1O)[C@H](O)[C@H](O)CCCCCCCCCCCCCC` (stereo partly shown) [GCK151], the “frequency of PBMCs secreting IL-4 (ELISPOT), compared with KRN” value in the assay on IL-4 is recorded as “high frequency”. Moreover, the “frequency of PBMCs secreting IFN-γ (ELISPOT), compared with KRN” value with IFN-γ is recorded as “high frequency”.
